ChEMBL document CHEMBL1125669, “Synthesis of potential dual-acting radiation sensitizer antineoplastic agents: 2,2-dimethylphosphoraziridines containing 2-nitroimidazoles or other electron-affinic moieties” (1991)

How the values were obtained:
Assay type in all cases: functional
[1] = test system: Mus musculus; assay: effect of drug treatment in combination with gamma radiation on P-388 leukemia in mice at 120 mg/kg and 400R expressed as average weight change
[2] = test system: Mus musculus; assay: effect of drug treatment in combination with gamma radiation on P-388 leukemia in mice at 120 mg/kg and 0R expressed as average weight change
[3] = test system: Mus musculus; assay: In vivo antitumor activity against P-388 leukemia in CDF1 mice at 100 mg or 430 umol by ip administration expressed as average wt. change determined between day 0 and day 6 of experiment
[4] = test system: Mus musculus; assay: In vivo antitumor activity against P-388 leukemia in CDF1 mice at 200 mg or 861 umol by ip administration expressed as average wt. change determined between day 0 and day 6 of experiment
[5] = test system: Mus musculus; assay: effect of drug treatment in combination with gamma radiation on P-388 leukemia in mice at 120 mg/kg and 600R expressed as median survival time of drug treated mice/median survival time of control mice x100
[6] = test system: Mus musculus; assay: effect of drug treatment in combination with gamma radiation on P-388 leukemia in mice at 120 mg/kg and 200R expressed as median survival time of drug treated mice/median survival time of control mice x100
[7] = test system: Mus musculus; assay: effect of drug treatment in combination with gamma radiation on P-388 leukemia in mice at 120 mg/kg and 400R expressed as median survival time of drug treated mice/median survival time of control mice x100
[8] = test system: Mus musculus; assay: effect of drug treatment in combination with gamma radiation on P-388 leukemia in mice at 120 mg/kg and 0R expressed as median survival time of drug treated mice/median survival time of control mice x100
[9] = test system: Mus musculus; assay: effect of drug treatment in combination with gamma radiation on P-388 leukemia in mice at 120 mg/kg and 600R expressed as average weight change
[10] = test system: Mus musculus; assay: In vivo antitumor activity against P-388 leukemia in CDF1 mice at 100 mg or 430 umol by ip administration expressed as median survival time of drug treated mice/median survival time of control mice x100
[11] = test system: Mus musculus; assay: effect of drug treatment in combination with gamma radiation on P-388 leukemia in mice at 120 mg/kg and 200R expressed as average weight change
[12] = test system: Mus musculus; assay: In vivo antitumor activity against P-388 leukemia in CDF1 mice at 200 mg or 861 umol by ip administration expressed as median survival time of drug treated mice/median survival time of control mice x100
[13] = test system: Mus musculus; assay: In vivo antitumor activity against P-388 leukemia in CDF1 mice at 256 mg or 661 umol by ip administration expressed as median survival time of drug treated mice/median survival time of control mice x100
[14] = test system: Mus musculus; assay: In vivo antitumor activity against P-388 leukemia in CDF1 mice at 128 mg or 330 umol by ip administration expressed as median survival time of drug treated mice/median survival time of control mice x100
[15] = test system: Mus musculus; assay: In vivo antitumor activity against P-388 leukemia in CDF1 mice at 8 mg or 21 umol by ip administration expressed as median survival time of drug treated mice/median survival time of control mice x100
[16] = test system: Mus musculus; assay: In vivo antitumor activity against P-388 leukemia in CDF1 mice at 16 mg or 41 umol by ip administration expressed as median survival time of drug treated mice/median survival time of control mice x100
[17] = test system: Mus musculus; assay: In vivo antitumor activity against P-388 leukemia in CDF1 mice at 64 mg or 165 umol by ip administration expressed as median survival time of drug treated mice/median survival time of control mice x100
[18] = test system: Mus musculus; assay: In vivo antitumor activity against P-388 leukemia in CDF1 mice at 16 mg or 41 umol by ip administration expressed as average wt. change determined between day 0 and day 6 of experiment
[19] = test system: Mus musculus; assay: In vivo antitumor activity against P-388 leukemia in CDF1 mice at 32 mg or 83 umol by ip administration expressed as median survival time of drug treated mice/median survival time of control mice x100
[20] = test system: Mus musculus; assay: In vivo antitumor activity against P-388 leukemia in CDF1 mice at 32 mg or 83 umol by ip administration expressed as average wt. change determined between day 0 and day 6 of experiment
[21] = test system: Mus musculus; assay: In vivo antitumor activity against P-388 leukemia in CDF1 mice at 128 mg or 330 umol by ip administration expressed as average wt. change determined between day 0 and day 6 of experiment
[22] = test system: Mus musculus; assay: In vivo antitumor activity against P-388 leukemia in CDF1 mice at 256 mg or 661 umol by ip administration expressed as average wt. change determined between day 0 and day 6 of experiment
[23] = test system: Mus musculus; assay: In vivo antitumor activity against P-388 leukemia in CDF1 mice at 8 mg or 21 umol by ip administration expressed as average wt. change determined between day 0 and day 6 of experiment
[24] = test system: Mus musculus; assay: In vivo antitumor activity against P-388 leukemia in CDF1 mice at 64 mg or 165 umol by ip administration expressed as average wt. change determined between day 0 and day 6 of experiment
[25] = test system: Mus musculus; assay: In vivo antitumor activity against P-388 leukemia in CDF1 mice at 50 mg or 182 umol by ip administration expressed as average wt. change determined between day 0 and day 6 of experiment
[26] = test system: Mus musculus; assay: In vivo antitumor activity against P-388 leukemia in CDF1 mice at 400 mg or 1453 umol by ip administration expressed as average wt. change determined between day 0 and day 6 of experiment
[27] = test system: Mus musculus; assay: In vivo antitumor activity against P-388 leukemia in CDF1 mice at 200 mg or 727 umol by ip administration expressed as average wt. change determined between day 0 and day 6 of experiment
[28] = test system: Mus musculus; assay: In vivo antitumor activity against P-388 leukemia in CDF1 mice at 200 mg or 727 umol by ip administration expressed as median survival time of drug treated mice/median survival time of control mice x100
[29] = test system: Mus musculus; assay: In vivo antitumor activity against P-388 leukemia in CDF1 mice at 400 mg or 1453 umol by ip administration expressed as median survival time of drug treated mice/median survival time of control mice x100
[30] = test system: Mus musculus; assay: In vivo antitumor activity against P-388 leukemia in CDF1 mice at 100 mg or 363 umol by ip administration expressed as average wt. change determined between day 0 and day 6 of experiment
[31] = test system: Mus musculus; assay: In vivo antitumor activity against P-388 leukemia in CDF1 mice at 100 mg or 363 umol by ip administration expressed as median survival time of drug treated mice/median survival time of control mice x100
[32] = test system: Mus musculus; assay: In vivo antitumor activity against P-388 leukemia in CDF1 mice at 50 mg or 182 umol by ip administration expressed as median survival time of drug treated mice/median survival time of control mice x100

## CCOP(=O)(N1CC1(C)C)N1CC1(C)C (configuration not stated)
[1]
  Average weight change: -0.93 g
[2]
  Average weight change: 0.83 g
[3]
  Average weight change: -2.6 g
[4]
  Average weight change: -5.2 g
[5]
  T/C: 80%
[6]
  T/C: 250%
[7]
  T/C: 160%
[8]
  T/C: 400%
[9]
  Average weight change: -3.58 g
[10]
  T/C: 289%
[11]
  Average weight change: 0.33 g
[12]
  T/C: 433%

## COCC(Cn1ccnc1[N+](=O)[O-])OP(=O)(N1CC1(C)C)N1CC1(C)C (configuration not stated)
[13]
  T/C: 200%
[14]
  T/C: 150%
[15]
  T/C: 106%
[16]
  T/C: 100%
[17]
  T/C: 133%
[18]
  Average weight change: 0.8 g
[19]
  T/C: 122%
[20]
  Average weight change: 0.4 g
[21]
  Average weight change: -0.3 g
[22]
  Average weight change: -1.5 g
[23]
  Average weight change: 1.2 g
[24]
  Average weight change: 0.2 g

## CCOC(=O)NP(=O)(N1CC1(C)C)N1CC1(C)C (configuration not stated) [METUREDEPA]
[25]
  Average weight change: -0.7 g
[26]
  Average weight change: -1.3 g
[27]
  Average weight change: -0.2 g
[28]
  T/C: 231%
[29]
  T/C: 244%
[30]
  Average weight change: -0.4 g
[31]
  T/C: 181%
[32]
  T/C: 163%
